From US8338473B2, “Derivatives of psammaplin A, a method for their synthesis and their uses for the prevention or treatment of cancer” (Centre National de la Recherche Scientifique, priority 2007, dated 2012)

Tested on: U937 acute myeloid leukemia cell line
Experiment: Cell cycle analysis in U937 cells
Format: cell-based, human
Details: U937, 30 hrs
Procedure: FIG. 1: a) Cell cycle analysis of U937 cells treated for 30 hrs with the indicated compounds used at 1 and 5 μM; b) Caspase 3 apoptotic assay of the indicated compounds after 24 hrs of treatment in the U937 cells; c) Tubulin acetylation and p21 expression levels at 6 and 16 hrs after treatment with the indicated compounds; total tubulin expression levels are used for equal loading; d) Histone H3 acetylation and K9 H3 methylation expression levels at 6 and 16 hrs after treatment with the indicated compounds; total tubulin expression levels are used for equal loading; e) K9, K14, K18 histone H3 acetylation expression levels at 6 and 16 hrs after treatment with the indicated compounds; total ERKs expression levels are used for equal loading; f) HDAC1 enzymatic assay: IP-HDAC1 is incubated with the indicated inhibitors for 24 Hrs; activity is measured as ^3H-acetyl release; g) HDAC4 enzymatic assay: IP-HDAC4 is incubated with the indicated inhibitors for 24 hrs; activity is measured as ^3H-acetyl release.
FIG. 3: a) Cell cycle and apoptosis analysis carried out in U937 cells after 24 hrs with the indicated compounds; values are media of independent triplicates; b) CD11c expression analysis carried out in U937 cells with the indicated compounds; values are media of independent duplicates; c) Tubuline acetylation and p21 expression levels in U937 cells after 24 hrs with the indicated treatments; total ERKs expression levels are used for equal loading; d) acetylation of histone H3 under the conditions indicated in (c).
Human leukemia cell line U937 was propagated in RPMI medium supplemented with 10% FBS (Foetal bovine serum; Hyclone) and antibiotics (100 U/mL penicillin, 100 μg/mL streptomycin and 250 ng/mL amphotericin-B). Cells were kept at the constant concentration of 200000 cells per milliliter of culture medium. For AML samples, bone marrow containing 80% to 90% leukemic blasts was purified over Ficoll. This study was approved by the Ethical Committee of the Second University of Naples.
MS-275 (Schering A G) was dissolved in ethanol and used at 5×10^−6M; valproic acid (VPA; Sigma) was used at 1 mM. All other compounds described were dissolved in DMSO (Sigma-Aldrich) and used at 1 or 5 μM.
2.5×10^5 cells were collected and resuspended in 500 μL of a hypotonic buffer (0.1% Triton X-100, 0.1% sodium citrate, 50 μg/mL propidium iodide, RNAse A). Cells were incubated in the dark for 30 min. Samples were acquired on a FACS-Calibur flow cytometer using the Cell Quest software (Becton Dickinson) and analysed with standard procedures using the Cell Quest software (Becton Dickinson) and the ModFit LT version 3 Software (Verity). All the experiments were performed 3 times.

**Q.** What does the source list for O=C(NCCSSCCNC(=O)C(Cc1c[nH]c2ccc(Br)cc12)=NO)C(Cc1c[nH]c2ccc(Br)cc12)=NO [UVI5008]?
**A.** cell cycle arrest, position of the block (1 μM): arrests cells in G2-M; cell cycle arrest, position of the block (1 and 5 μM): arrests in the S and G2 phases
